{"source": "paper PMC3914206", "key": {"[1]": {"target": "T1, panel of 442 kinases (Homo sapiens, UniProt Q9UKI8)", "T1 construct": "purchased KINOMEscan", "T1 sequence (Q9UKI8 1-766)": "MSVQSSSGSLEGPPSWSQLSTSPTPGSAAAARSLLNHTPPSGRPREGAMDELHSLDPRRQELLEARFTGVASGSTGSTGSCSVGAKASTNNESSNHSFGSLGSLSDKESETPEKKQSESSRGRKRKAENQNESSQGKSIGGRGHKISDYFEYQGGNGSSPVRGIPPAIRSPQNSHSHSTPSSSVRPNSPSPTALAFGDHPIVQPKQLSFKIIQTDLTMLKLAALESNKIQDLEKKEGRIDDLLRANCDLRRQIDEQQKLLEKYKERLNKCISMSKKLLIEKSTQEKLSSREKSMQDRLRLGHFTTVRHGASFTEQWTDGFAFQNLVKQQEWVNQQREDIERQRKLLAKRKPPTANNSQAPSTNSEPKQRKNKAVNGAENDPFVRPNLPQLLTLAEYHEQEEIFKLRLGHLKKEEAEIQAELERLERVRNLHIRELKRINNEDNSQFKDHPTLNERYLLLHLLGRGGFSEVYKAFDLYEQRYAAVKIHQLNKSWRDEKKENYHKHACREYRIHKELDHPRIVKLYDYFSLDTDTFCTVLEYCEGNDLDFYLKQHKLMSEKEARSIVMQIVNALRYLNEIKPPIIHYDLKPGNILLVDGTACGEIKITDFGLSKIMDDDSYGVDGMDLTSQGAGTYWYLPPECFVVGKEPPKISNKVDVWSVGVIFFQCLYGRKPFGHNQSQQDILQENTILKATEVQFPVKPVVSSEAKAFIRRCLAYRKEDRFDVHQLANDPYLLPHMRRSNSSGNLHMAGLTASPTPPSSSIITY", "format": "binding", "details": "kinase TLK1; compound concentration 10 µM", "description": "(§1) We assessed the selectivity of members of this scaffold using the KINOMEscan methodology across a near comprehensive panel of 442 kinases [[18,27]]."}, "[2]": {"target": "T2, panel of 442 kinases (Homo sapiens, UniProt Q16512)", "T2 construct": "purchased KINOMEscan", "T2 sequence (Q16512 whole entry)": "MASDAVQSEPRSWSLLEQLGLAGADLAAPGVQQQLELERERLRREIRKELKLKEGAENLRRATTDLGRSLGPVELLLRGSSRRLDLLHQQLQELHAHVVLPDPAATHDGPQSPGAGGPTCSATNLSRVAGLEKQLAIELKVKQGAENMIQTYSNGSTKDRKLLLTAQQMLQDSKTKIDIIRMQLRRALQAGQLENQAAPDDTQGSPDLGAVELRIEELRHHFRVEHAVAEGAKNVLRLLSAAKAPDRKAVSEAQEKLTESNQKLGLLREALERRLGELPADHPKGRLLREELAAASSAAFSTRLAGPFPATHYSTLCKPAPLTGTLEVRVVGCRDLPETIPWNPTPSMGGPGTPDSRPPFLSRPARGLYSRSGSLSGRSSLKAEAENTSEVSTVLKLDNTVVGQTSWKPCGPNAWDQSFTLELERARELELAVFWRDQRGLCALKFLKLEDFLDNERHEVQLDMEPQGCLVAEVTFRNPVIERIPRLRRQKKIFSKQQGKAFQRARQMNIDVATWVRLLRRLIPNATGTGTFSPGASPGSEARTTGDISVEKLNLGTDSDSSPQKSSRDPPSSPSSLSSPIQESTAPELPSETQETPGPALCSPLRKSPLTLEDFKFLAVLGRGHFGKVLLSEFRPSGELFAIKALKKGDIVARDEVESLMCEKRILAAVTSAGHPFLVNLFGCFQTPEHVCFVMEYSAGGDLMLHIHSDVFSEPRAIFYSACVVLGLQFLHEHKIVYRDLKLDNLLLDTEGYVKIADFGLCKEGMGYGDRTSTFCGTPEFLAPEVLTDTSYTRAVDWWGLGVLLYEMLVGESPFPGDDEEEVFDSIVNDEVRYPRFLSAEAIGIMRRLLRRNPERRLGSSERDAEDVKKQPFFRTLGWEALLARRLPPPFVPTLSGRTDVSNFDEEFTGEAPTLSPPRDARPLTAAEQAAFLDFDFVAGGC", "format": "binding", "details": "Compound Concentration 10 µM", "description": "as §1"}}, "data": [{"smiles": "COc1cc(C(=O)N2CCC(N3CCN(C)CC3)CC2)ccc1Nc1ncc2c(n1)N(C)c1ccccc1C(=O)N2C", "note": "[15 (LRRK2-IN-1)]", "values": [{"measurement": "% Ctrl, TLK1", "setting": "[1]", "value": 100, "unit": "% Ctrl"}, {"measurement": "KINOMEscan: PKN1", "setting": "[2]", "value": 100}]}, {"smiles": "CCOc1cc(C(=O)N2CCC(N3CCN(C)CC3)CC2)ccc1Nc1ncc2c(n1)N(C1CCCC1)c1ccccc1C(=O)N2C", "note": "[Compound 26]", "values": [{"measurement": "% Ctrl, TLK1", "setting": "[1]", "value": 90, "unit": "% Ctrl"}, {"measurement": "KINOMEscan: PKN1", "setting": "[2]", "value": 100}]}, {"smiles": "COc1cc(C(=O)N2CCC(N3CCN(C)CC3)CC2)ccc1Nc1ncc2c(n1)N(C1CCCC1)c1ccccc1C(=O)N2C", "note": "[Compound 25, 11-cyclopentyl-2-((2-methoxy-4-(4-(4-methylpiperazin-1-yl)piperidine-1-carbonyl)phenyl)amino)-5-methyl-5H-benzo[e]pyrimido[5,4-b][1,4]diazepin-6(11H)-one]", "values": [{"measurement": "% Ctrl, TLK1", "setting": "[1]", "value": 74, "unit": "% Ctrl"}, {"measurement": "KINOMEscan: PKN1", "setting": "[2]", "value": 100}]}]}
